Reference: patent US20100062012A1, “Negative Genetic Regulation of Cancer Cell Renewal in Synergy with Notch- or Numb-Specific Immunotherapy” (priority 2007, published 2010)
Marks after values point to notes of the source that are not given here.

Key:
MCF7 [1] = test: Flow cytometry of CSt-C markers after culture with drugs; type: cell-based, human
Protocol: (§1) Flow cytometery analysis. All cells were cultured with Gem at 2×IC50 of gemcitabine for 10 days. Cultured cells (2×10^5) were washed in cold-PBS followed by blocking with 20 μL of 1 mg/mL of human IgG (Sigma, Saint Louis, Mo.) for 1 hour on ice. This step was necessary to inhibit non-specific binding of immunoglobulins during staining. Cells were then triple-stained with antibodies against ESA, CD44, and CD24. Analysis was performed with Becton Dickinson FACSCalibur and Cell Quest software (Becton Dickinson). Cells were gated on ESA+ population. Expression of CD24 and CD44 was examined in gated ESA+ cells as we described (26). The population of the ESA+, CD44hi and CD24low/− cells was calculated as percent of total cells and total ESA+ cells. All cell lines were also stained with a MIC-A/B and CD133, and analyzed as above.

MIA-PaCa-2 [2] = test: as above; type: cell-based, human
Protocol: as §1

MIA-PaCa-2 [3] = test: Flow cytometry of NKG2D ligands MIC-A/B in drug-resistant cells; type: cell-based, human; details: MIA PaCa-2, FIG. 7A
Protocol: as §1
To address the hypothesis that drug-resistant cancer cells are more sensitive to cellular immune effectors, we quantified expression of NKG2D ligands, MIC-A and -B (58, 59). ESA^+ MIA-PaCa-2 cells were analyzed for MIC-A/B. MCF7 cells were analyzed with CD44, CD24 and MIC-A/B (FIG. 7B), because almost all MCF7 cells (95% and more) expressed ESA.

MCF7 [4] = test: MTT inhibition of proliferation; type: cell-based; details: Homo sapiens, 72 h
Text: (§2) Inhibition of proliferation of tumor cell lines by anticancer drugs.

MIA-PaCa-2 [5] = test: MTT inhibition of proliferation; type: cell-based; details: Homo sapiens; MIA-PaCa-2, MTT, 72 h
Text: as §2

PANC-1 = test: MTT inhibition of proliferation; type: cell-based; details: Homo sapiens; PANC-1, MTT, 72 h
Text: as §2

AsPC-1 = test: MTT inhibition of proliferation; type: cell-based, human; details: Homo sapiens, ASPC1, 72 h, AsPC-1, MTT, 72 h
Text: as §2

SKOV-3 = test: MTT inhibition of proliferation; type: cell-based, human; details: Homo sapiens, SK-OV-3, 72 h, SKOV-3, MTT
Text: as §2

MIA-PaCa-2 [6] = test: Flow cytometry of CSt-C markers after culture with drugs; type: cell-based, human; details: starting from 3.0×10^6 Mia-PaCa-2 cells
MCF7 cells = test: Stimulation of MCF7 / GEMRes MCF7 by DLL4; type: cell-based, human
Protocol: Stimulation of GEMRes MCF7 by DLL4. GEMRes MCF7 were obtained after culture with 0.3 uM GEM for 7 weeks. MCF7 were stimulated for 24 hrs, in medium containing estradiol, fibroblast growth factor in the presence or absence of DLL4, as described (40).

[7] = system: CD8+ T cells (TAL) from ascites of HLA-A2+ ovarian cancer patients; test: peptide-HLA-A2-IgG dimer staining of ovarian tumor associated lymphocytes (flow cytometry); type: cell-based, human; details: for patients with activated CD8+ Perforin+ cells expressing TCR specific for the peptide: five ovarian cancer patients
Text: Lymphocyte culture. Lymphocytes were isolated by Ficoll-gradient centrifugation from heparinized ascites from HLA-A2^+ ovarian cancer patients. After separation, we cultured lymphocytes with RPMI 1640 medium with 10% FCS and 300 IU of IL-2 (Biosource Camarillo, Calif.) for one week, as we described (23,24).
We identified cells expressing high concentrations/numbers of T cell receptors (TCRs) reactive with each peptide to evaluate the role of TCR density in CTL differentiation upon in vivo stimulation with the same ligands. The TCR^+ population which usually includes cells staining with antigen-tetramers/dimers with a mean fluorescence intensity (MFI) higher than 101, was divided in three populations, one staining with antigen-pulsed HLA-A2/IgG dimers (dimers) with a MFI (TCR) between 101 and 102, and other which stained with antigen-pulsed dimers with a MFI (TCR) between 102 and 103, and other which stained with antigen-pulsed dimers with a MFI (TCR) between 103 and 104. These populations were designated as TCR^lo, TCRmed, and […], respectively, as we described (26).
T cell: peptide-HLA-A2-lgG dimer interaction. Expression of TCRs specific for peptides Notch1 (1940-1948), Notch1 (2112-2120), Numb1 (87-95), Gli1 (580-588) and AESI (128-137) was determined using HLA-A2-IgG-dimmers (BD Bioscience Pharmingen). The peptide loaded dimers were prepared as we previously described (23). Staining of lymphocyte with dimers was performed as described previously (24,27,28).
The same cells were also stained for the expression of CD8 antigen and the presence of Perforin, (effector pore forming enzyme) using specific antibodies conjugated to distinct fluorochromes than the dimers: fluorescein isothiocianate (FITC), allophycocyanin (APC) and PE. Cells reacting with the corresponding peptide-loaded dimers are designated as Notch1-1940-TCR^+, Notch1-2112-TCR^+, Numb1-87-TCR^+, and […] cells, respectively. Cells reacted with control HLA-A2-IgG dimers not loaded with peptide are designated as dNP-TCR^+ cells.

[8] = target: Notch receptor on MCF7 cells (human); test: cell-based or functional assay
[9] = MIA-PaCa-2 after culture with drug
[10] = Patient 1, TCR-density High, TAL one week in 300 IU IL-2

Chain of recombinant human Delta-like protein 4 (Q9NR61 27-524 limits assumed, stated change not applied): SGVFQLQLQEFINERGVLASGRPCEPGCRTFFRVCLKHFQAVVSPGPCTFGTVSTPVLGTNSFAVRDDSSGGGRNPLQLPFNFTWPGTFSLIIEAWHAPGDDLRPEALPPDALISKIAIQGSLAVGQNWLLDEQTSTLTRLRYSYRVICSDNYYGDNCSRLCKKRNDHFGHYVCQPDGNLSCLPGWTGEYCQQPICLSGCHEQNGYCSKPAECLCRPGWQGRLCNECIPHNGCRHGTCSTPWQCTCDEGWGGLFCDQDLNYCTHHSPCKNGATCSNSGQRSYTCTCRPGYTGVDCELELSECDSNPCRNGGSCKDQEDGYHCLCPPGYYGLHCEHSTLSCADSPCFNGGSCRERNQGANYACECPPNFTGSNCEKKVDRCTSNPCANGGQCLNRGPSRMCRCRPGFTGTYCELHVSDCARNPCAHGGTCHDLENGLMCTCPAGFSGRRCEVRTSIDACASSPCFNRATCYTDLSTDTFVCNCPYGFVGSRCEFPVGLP

| Compound | % TCR+ cells for HLA-A2: peptide [7, 10] | % TCR+ cells for HLA-A2: peptide ([7]; Patient 1, TCR-density Low) [%] | % TCR+ cells for HLA-A2: peptide ([7]; Patient 1, TCR-density Med) | % TCR+ cells for HLA-A2: peptide ([7]; Patient 2, TCR-density High) [%] | % TCR+ cells for HLA-A2: peptide ([7]; Patient 2, TCR-density Low) | % TCR+ cells for HLA-A2: peptide ([7]; Patient 2, TCR-density Med) [%] | % TCR+ cells for HLA-A2: peptide ([7]; Patient 3, TCR-density High) [%] | % TCR+ cells for HLA-A2: peptide ([7]; Patient 3, TCR-density Low) [%] | % TCR+ cells for HLA-A2: peptide ([7]; Patient 3, TCR-density Med) [%] | % TCR+ cells for HLA-A2: peptide ([7]; Patient 4, TCR-density High) [%] | % TCR+ cells for HLA-A2: peptide ([7]; Patient 4, TCR-density Low) [%] | % TCR+ cells for HLA-A2: peptide ([7]; Patient 4, TCR-density Med) | % TCR+ cells for HLA-A2: peptide ([7]; Patient 5, TCR-density High) | % TCR+ cells for HLA-A2: peptide ([7]; Patient 5, TCR-density Low) [%] | % TCR+ cells for HLA-A2: peptide ([7]; Patient 5, TCR-density Med) [%] | further results |
| --- | --- | --- | --- | --- | --- | --- | --- | --- | --- | --- | --- | --- | --- | --- | --- | --- |
| O=c1[nH]cc(F)c(=O)[nH]1 [5-FU, 5-fluorouracil] |  |  |  |  |  |  |  |  |  |  |  |  |  |  |  | change of CSt-like-C population (MCF7 [1]; MCF7): increased; cells harvested (MCF7 [1]; after culture of 3×10^6 MCF-7 cells): 1.6 ×10^6; change of CSt-C (CSt-like-C) population (MIA-PaCa-2 [2]; MIA-PaCa-2): increased; % CD44hi CD24- in ESA+ cells (MIA-PaCa-2 [2]; [9]): 0.2%; % CD44hi CD24hi in ESA+ cells (MIA-PaCa-2 [2]; [9]): 7.1%; % CD44hi CD24low in ESA+ cells (MIA-PaCa-2 [2]; [9]): 19.8%; % CSt-like-C (MIA-PaCa-2 [2]; [9]): 16.4%; % ESA+ (MIA-PaCa-2 [2]; [9]): 83.0%; number of cells expressing MICA and MICB in drug-resistant cells (MIA-PaCa-2 [3]): increased; IC50 (MCF7 [4]): 1300 nM; IC50 (MIA-PaCa-2 [5]): 3.7 µM; IC50 (PANC-1): 800 nM; IC50 (AsPC-1): 15.2 µM; IC50 (SKOV-3): 3.6 µM; cells harvested (MIA-PaCa-2 [6]): 3.4 ×10^6 cells |
| DLL4: recombinant human Delta-like protein 4, soluble Notch ligand |  |  |  |  |  |  |  |  |  |  |  |  |  |  |  | expansion of CD44+ CD24low cells compared with medium (MCF7 cells; DLL4-activation of GEMRes cells): 2-3 fold; CD44hi CD24hi (% of cells) (MCF7 cells; MCF7): 36.4%; CD44hi CD24hi (cell number) (MCF7 cells; MCF7): 6.84; CD44hi CD24low (% of cells) (MCF7 cells; MCF7): (3.5%); CD44hi CD24low (cell number) (MCF7 cells; MCF7): 0.66 × 10^6; ratio CD44hi CD24hi to CD44hi CD24low (MCF7 cells; MCF7): 10.4; Stimulation Index (MCF7 cells; MCF7, harvested/seeded): 6.27; Harvested cells (MCF7 cells; MCF7, seeded 3.0 x 10^6): *18.80 10^6 |
| LPL TPLPVGL [AES1] | 0.19% | 0.23 | 0.23% |  |  |  |  |  |  |  |  |  |  |  |  |  |
| RLLDEYNLV (listed as Homo sapiens) [Notch1-2112] | 0.26% | 0.24 | 0.28% | 0.17 | 2.09* % | 0.35 | 0.08 | 0.43 | 0.28 | 0.08 | 0.88 | 0.34* % | 0.17% | 2.52 | 0.36 | TCRmed cells relative to base-line NP dimers ([7]; Patient 4): 2.61 times; TCRmed cells relative to base-line control dNP ([7]; Patient 5): 1.63 times; patients with activated CD8+ Perforin+ cells expressing TCR specific for the peptide [7]: two of five |
| RLLEASADA (listed as Homo sapiens) [Notch1-1947, used as specificity control] |  |  |  | 0.10 | 0.99% | 0.32 | 0.10 | 0.65 | 0.24 | 0.22 | 0.53 | 0.26% | 0.14% | 1.98 | 0.26 |  |
| VLWVSADGL (listed as Homo sapiens) [Numb1-87] | 0.64* % | 0.51 | 0.66* % | 0.16 | 2.76* % | 0.46 | 0.09 | 0.50 | 0.21 | 0.22 | 0.53 | 0.26% | 0.27* % | 1.84 | 0.27 | TCRhi CD8+ cells relative to cells reactive with control dNP dimers ([7]; Patient 5): 2.45 times; increase in numbers of TCRhi Perhi cells compared with Notch1-2112 dimer ([7]; TAL-1, FIG. 4): 3.3 fold; amount of Perforin in peptide-TCR+ cells ([7]; TAL-1, FIG. 4G): highest amount of Perforin; increase in numbers of TCR+ cells ([7]; TAL-2, large-size lymphocytes, FIG. 5H): 3 fold; patients with activated CD8+ Perforin+ cells expressing TCR specific for the peptide [7]: three of five |
| recombinant human Delta-like protein 4 (from UniProt Q9NR61 27-524) (ligand) |  |  |  |  |  |  |  |  |  |  |  |  |  |  |  | Harvested cells: 10^6 (MCF7, DLL4, no GEM; NT control 12.96) [8]: 1.88e+07 cells; Harvested cells: 10^6 (MCF7, DLL4 with GEM; GEM alone 1.32) [8]: 2.16e+06 cells; Stimulation Index (proliferation of MCF7 cells, DLL4, no GEM; NT control 4.32) [8]: 6.27; Stimulation Index (proliferation of MCF7 cells, DLL4 with GEM; GEM alone 0.44) [8]: 0.72; increase in total cell number at stimulation with DLL4 [8]: > 45% |
